# Test results published in the supplement of paper PMC10307832.
# Assays:
# Assay in all cases: relative viability (nuclei count vs DMSO), 5 days (fraction); higher = more cells survive
# [1] = compound: CCN1CCC(CC1)N2C=C(N=N2)CNC3=CC4=C(C(=CN=C4C(=C3)Cl)C#N)NC5=CC(=C(C=C5)F)Cl [KIN001-266] + CS(=O)(=O)CCNCc1ccc(-c2ccc3ncnc(Nc4ccc(OCc5cccc(F)c5)c(Cl)c4)c3c2)o1 [Lapatinib] (partner 2 µM)
# Method in brief: (§1)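 Dosing by pin tool came one day after lung cancer cell lines were seeded in 1536-well plates, using either one drug or a fixed anchor-drug dose plus five library-drug doses (not always all listed) in √10 steps. After 5 days, nuclei were counted on 4× images. Relative viability is treated-well nuclei count divided by vehicle-well nuclei count, and values are medians of duplicate plates.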
# [2] = compound: CCN1CCC(CC1)N2C=C(N=N2)CNC3=CC4=C(C(=CN=C4C(=C3)Cl)C#N)NC5=CC(=C(C=C5)F)Cl [KIN001-266] + Cc1nc(Nc2ncc(C(=O)Nc3c(C)cccc3Cl)s2)cc(N2CCN(CCO)CC2)n1 [Dasatinib] (partner 0.075 µM)
# Method in brief: as §1
# [3] = compound: CCN1CCC(CC1)N2C=C(N=N2)CNC3=CC4=C(C(=CN=C4C(=C3)Cl)C#N)NC5=CC(=C(C=C5)F)Cl [KIN001-266] + Nc1nc2[nH]cc(CCc3ccc(C(=O)N[C@@H](CCC(=O)O)C(=O)O)cc3)c2c(=O)[nH]1 [Pemetrexed] (partner 0.2 µM)
# Method in brief: as §1
# [4] = compound: CCN1CCC(CC1)N2C=C(N=N2)CNC3=CC4=C(C(=CN=C4C(=C3)Cl)C#N)NC5=CC(=C(C=C5)F)Cl [KIN001-266] + C[C@@H](Oc1cc(-c2cnn(C3CCNCC3)c2)cnc1N)c1c(Cl)ccc(F)c1Cl [Crizotinib] (partner 1 µM)
# Method in brief: as §1
cell line,measurement,setting,value
LCLC-97TM1,relative viability,[1]; first compound 0.08 µM,0.836
same,relative viability,[1]; first compound 0.253 µM,0.868
same,relative viability,[1]; first compound 0.8 µM,1.14
same,relative viability,[1]; first compound 2.53 µM,1.04
same,relative viability,[1]; first compound 8 µM,0.844
same,relative viability,[2]; first compound 0.08 µM,0.905
same,relative viability,[2]; first compound 0.253 µM,0.812
same,relative viability,[2]; first compound 0.8 µM,0.825
same,relative viability,[2]; first compound 2.53 µM,0.746
same,relative viability,[2]; first compound 8 µM,0.848
same,relative viability,[3]; first compound 0.08 µM,0.193
same,relative viability,[3]; first compound 0.253 µM,0.191
same,relative viability,[3]; first compound 0.8 µM,0.171
same,relative viability,[3]; first compound 8 µM,0.227
same,relative viability,[4]; first compound 0.08 µM,0.327
same,relative viability,[4]; first compound 0.253 µM,0.289
same,relative viability,[4]; first compound 0.8 µM,0.242
same,relative viability,[4]; first compound 2.53 µM,0.21
same,relative viability,[4]; first compound 8 µM,0.24
HARA,relative viability,[1]; first compound 0.08 µM,0.929
same,relative viability,[1]; first compound 0.253 µM,0.689
same,relative viability,[1]; first compound 0.8 µM,0.842
same,relative viability,[1]; first compound 2.53 µM,0.823
same,relative viability,[1]; first compound 8 µM,0.657
same,relative viability,[2]; first compound 0.08 µM,0.26
same,relative viability,[2]; first compound 0.253 µM,0.256
same,relative viability,[2]; first compound 0.8 µM,0.231
same,relative viability,[2]; first compound 2.53 µM,0.264
same,relative viability,[2]; first compound 8 µM,0.281
same,relative viability,[3]; first compound 0.08 µM,0.289
same,relative viability,[3]; first compound 0.253 µM,0.276
same,relative viability,[3]; first compound 0.8 µM,0.256
same,relative viability,[3]; first compound 2.53 µM,0.242
same,relative viability,[3]; first compound 8 µM,0.206
same,relative viability,[4]; first compound 0.08 µM,1.07
same,relative viability,[4]; first compound 0.253 µM,1.24
same,relative viability,[4]; first compound 0.8 µM,0.894
same,relative viability,[4]; first compound 2.53 µM,0.967
same,relative viability,[4]; first compound 8 µM,0.782
HCC-78,relative viability,[1]; first compound 0.08 µM,0.79
same,relative viability,[1]; first compound 0.253 µM,0.612
same,relative viability,[1]; first compound 0.8 µM,0.597
same,relative viability,[1]; first compound 2.53 µM,0.731
same,relative viability,[1]; first compound 8 µM,0.773
same,relative viability,[2]; first compound 0.08 µM,0.566
same,relative viability,[2]; first compound 0.253 µM,0.421
same,relative viability,[2]; first compound 2.53 µM,0.361
same,relative viability,[2]; first compound 8 µM,0.38
same,relative viability,[3]; first compound 0.08 µM,0.874
same,relative viability,[3]; first compound 0.253 µM,0.832
same,relative viability,[3]; first compound 0.8 µM,0.872
same,relative viability,[3]; first compound 2.53 µM,0.873
same,relative viability,[3]; first compound 8 µM,0.91
same,relative viability,[4]; first compound 0.08 µM,0.324
same,relative viability,[4]; first compound 0.253 µM,0.357
same,relative viability,[4]; first compound 0.8 µM,0.293
same,relative viability,[4]; first compound 2.53 µM,0.39
same,relative viability,[4]; first compound 8 µM,0.381
NCI-H1666,relative viability,[1]; first compound 0.08 µM,0.804
same,relative viability,[1]; first compound 0.253 µM,0.646
same,relative viability,[1]; first compound 0.8 µM,0.671
same,relative viability,[1]; first compound 2.53 µM,0.646
same,relative viability,[1]; first compound 8 µM,0.509
same,relative viability,[2]; first compound 0.08 µM,0.798
same,relative viability,[2]; first compound 0.253 µM,0.811
same,relative viability,[2]; first compound 0.8 µM,0.784
same,relative viability,[2]; first compound 2.53 µM,0.833
same,relative viability,[2]; first compound 8 µM,0.804
same,relative viability,[3]; first compound 0.08 µM,0.861
same,relative viability,[3]; first compound 0.253 µM,0.857
same,relative viability,[3]; first compound 0.8 µM,0.881
same,relative viability,[3]; first compound 2.53 µM,0.773
same,relative viability,[3]; first compound 8 µM,0.856
same,relative viability,[4]; first compound 0.08 µM,0.963
same,relative viability,[4]; first compound 0.253 µM,1.21
same,relative viability,[4]; first compound 0.8 µM,1.01
same,relative viability,[4]; first compound 2.53 µM,0.964
same,relative viability,[4]; first compound 8 µM,0.797
